The values that follow come from patent publication US10543198B2 (Celgene Quanticel Research, Inc., priority 2014, dated 2020).

This assay concerns the target full-length human LSD1 (Homo sapiens (Human), UniProt O60341). In words: In Vitro Enzyme Inhibition Assay - LSD-1 (TR-FRET). In kind it is biochemical. The following applies: 0.1 nM LSD1, H3K4me1-biotin peptide. The method, then:
This assay determines the ability of a test compound to inhibit LSD1 demethylase activity.
The enzymatic assay of LSD1 activity is based on Time Resolved-Fluorescence Resonance Energy Transfer (TR-FRET) detection.
The ability of the compounds disclosed herein to inhibit LSD1 activity was quantified and the respective IC50 value was determined.
Background: TR-FRET usually uses a lanthanide donor and a delayed reading to cut background.
Usually IC50 stands for the concentration that inhibits the measured activity by half. `Cc1ccc(-c2cnc(NCC3(F)CCNC3)nc2-c2ccc(C#N)cc2)cc1` (racemic) [Example 28, (±)-4-(2-{[(3-fluoropyrrolidin-3-yl)methyl]amino}-5-(4-methylphenyl)pyrimidin-4-yl)benzonitrile] gave an IC50 below 100 nM.

`Cc1ccc(-c2cnc(NC3CCCNC3)nc2-c2ccc(C#N)cc2)cc1` (racemic) [Example 29, (±)-4-[5-(4-methylphenyl)-2-[(piperidin-3-yl)amino]pyrimidin-4-yl]benzonitrile] displayed an IC50 below 100 nM.

In turn, `Cc1ccc(-c2nc3ccn(C[C@@H]4CCNC4)c3cc2-c2ccc(C#N)cc2)cc1` [Example 1, 4-[5-(4-methylphenyl)-1-[[(3R)-pyrrolidin-3-yl]methyl]pyrrolo[3,2-b]pyridin-6-yl]benzonitrile] had a 50% inhibitory concentration (IC50) below 100 nM.

With `N#Cc1ccc(-c2cc3c(ccn3C[C@@H]3CCNC3)nc2Cl)cc1` [Example 2, 4-[5-chloro-1-[[(3R)-pyrrolidin-3-yl]methyl]pyrrolo[3,2-b]pyridin-6-yl]benzonitrile], the IC50 was 100 to 1000 nM.

In turn, `Cc1ccc(-c2nc3ccn(C[C@H]4CCNC4)c3cc2-c2ccc(C#N)cc2)cc1` [Example 3, 4-[5-(4-methylphenyl)-1-[[(3S)-pyrrolidin-3-yl]methyl]pyrrolo[3,2-b]pyridin-6-yl]benzonitrile] yielded an IC50 below 100 nM.

`N#Cc1ccc(-c2cc3c(ccn3C[C@H]3CCNC3)nc2-c2ccc(F)cc2)cc1` [Example 5, 4-[5-(4-fluorophenyl)-1-[[(3S)-pyrrolidin-3-yl]methyl]pyrrolo[3,2-b]pyridin-6-yl]benzonitrile] displayed an IC50 below 100 nM.

In turn, `N#Cc1ccc(-c2cc3c(ccn3C[C@H]3CCNC3)nc2N2CCOCC2)cc1` [Example 7, 4-[5-morpholin-4-yl-1-[[(3S)-pyrrolidin-3-yl]methyl]pyrrolo[3,2-b]pyridin-6-yl]benzonitrile] had an IC50 below 100 nM.

`Cc1ccc(-c2nc3ccn(C[C@H]4CNCCO4)c3cc2-c2ccc(C#N)cc2)cc1` [Example 10, 4-[5-(4-methylphenyl)-1-[[(2R)-morpholin-2-yl]methyl]pyrrolo[3,2-b]pyridin-6-yl]benzonitrile] came in with an IC50 below 100 nM.

For `N#Cc1ccc(-c2cc3c(ccn3C[C@H]3CNCCO3)nc2-c2ccc(F)cc2)cc1` [Example 11, 4-[5-(4-fluorophenyl)-1-[[(2R)-morpholin-2-yl]methyl]pyrrolo[3,2-b]pyridin-6-yl]benzonitrile], the concentration for half-maximal inhibition (IC50) was below 100 nM.

Molecule `Cc1ccc(-c2nc3ccn(CCCN)c3cc2-c2ccc(C#N)cc2)cc1` [Example 12, 4-[1-(3-aminopropyl)-5-(4-methylphenyl)pyrrolo[3,2-b]pyridine-6-yl]benzonitrile] registered an IC50 below 100 nM.

With `Cc1ccc(-c2nc3cnn(CC4CCNC4)c3cc2-c2ccc(C#N)cc2)cc1` (stereo not shown) [Example 13, 4-[5-(4-methylphenyl)-1-(pyrrolidin-3-ylmethyl)pyrazolo[4,3-b]pyridin-6-yl]benzonitrile], the concentration for half-maximal inhibition (IC50) is below 100 nM.

`Cc1ccc(-c2nc3cnn(CC4CCNCC4)c3cc2-c2ccc(C#N)cc2)cc1` [Example 14, 4-[5-(4-methylphenyl)-1-(piperidin-4-ylmethyl)pyrazolo[4,3-b]pyridin-6-yl]benzonitrile]: the half-maximal inhibitory concentration (IC50) is below 100 nM.

In turn, `Cc1ccc(-c2nc3cnn(C[C@H]4[C@@H]5CNC[C@@H]54)c3cc2-c2ccc(C#N)cc2)cc1` [Example 15, 4-[1-[[(1S,5R)-3-azabicyclo[3.1.0]hexan-6-yl]methyl]-5-(4-methylphenyl)pyrazolo[4,3-b]pyridin-6-yl]benzonitrile] displayed an IC50 below 100 nM.

For `Cc1ccc(-c2cnc(NC[C@H]3CCNC3)nc2-c2ccc(C#N)cc2)cc1` [Example 16, 4-[5-(4-methylphenyl)-2-{[(3S)-pyrrolidin-3-ylmethyl]amino}pyrimidin-4-yl]benzonitrile], the IC50 is below 100 nM.

Consider `N#Cc1ccc(-c2nc(NC[C@H]3CCNC3)ncc2-c2ccc(F)cc2)cc1` [Example 18, 4-[5-(4-fluorophenyl)-2-{[(3S)-pyrrolidin-3-ylmethyl]amino}pyrimidin-4-yl]benzonitrile], for which the IC50 is below 100 nM.

On to `N#Cc1ccc(-c2nc(NC[C@H]3CCNC3)ncc2-c2ccc(Cl)cc2)cc1` [Example 19, 4-[5-(4-chlorophenyl)-2-{[(3S)-pyrrolidin-3-ylmethyl]amino}pyrimidin-4-yl]benzonitrile], for which the IC50 was below 100 nM.

Molecule `Cc1ccc(-c2cnc(OC[C@@H]3CCNC3)nc2-c2ccc(C#N)cc2)cc1` [Example 20, 4-[5-(4-methylphenyl)-2-[(3R)-pyrrolidin-3-ylmethoxy]pyrimidin-4-yl]benzonitrile] displayed an IC50 below 100 nM.

Turning to `Cc1ccc(-c2cnc(N3C[C@H]4CNC[C@H]4C3)nc2-c2ccc(C#N)cc2)cc1` [Example 21, 4-{2-[(3aR,6aS)-octahydropyrrolo[3,4-c]pyrrol-2-yl]-5-(4-methylphenyl)pyrimidin-4-yl}benzonitrile], the IC50 was below 100 nM.

With `Cc1ccc(-c2cnc(N3CCC4CNCC4C3)nc2-c2ccc(C#N)cc2)cc1` (stereo not shown) [Example 22, 4-[5-(4-methylphenyl)-2-{octahydro-1H-pyrrolo[3,4-c]pyridin-5-yl}pyrimidin-4-yl]benzonitrile], the 50% inhibitory concentration (IC50) is below 100 nM.

Consider `Cc1ccc(-c2cnc(N3CC[C@@H]4CNC[C@@H]4CC3)nc2-c2ccc(C#N)cc2)cc1` [Example 23, 4-{2-[(3aR,8aS)-decahydropyrrolo[3,4-d]azepin-6-yl]-5-(4-methylphenyl)pyrimidin-4-yl}benzonitrile], for which the IC50 is below 100 nM.

In turn, `N#Cc1ccc(-c2nc(N3CC[C@@H]4CNC[C@@H]4CC3)ncc2-c2ccc(F)cc2)cc1` [Example 24, 4-{2-[(3aR,8aS)-decahydropyrrolo[3,4-d]azepin-6-yl]-5-(4-fluorophenyl)pyrimidin-4-yl}benzonitrile] had an IC50 below 100 nM.

On to `N#Cc1ccc(-c2nc(NC[C@H]3CCNC3)ncc2-c2ccc(C(F)(F)F)cc2)cc1` [Example 25, 4-(2-{[(3S)-pyrrolidin-3-ylmethyl]amino}-5-[4-(trifluoromethyl)phenyl]pyrimidin-4-yl)benzonitrile], for which the concentration for half-maximal inhibition (IC50) was below 100 nM.

Molecule `N#Cc1ccc(-c2nc(NC[C@H]3CCNC3)ncc2C#CC2CC2)cc1` [Example 26, 4-[5-(2-cyclopropylethynyl)-2-{[(3S)-pyrrolidin-3-ylmethyl]amino}pyrimidin-4-yl]benzonitrile] yielded a concentration for half-maximal inhibition (IC50) below 100 nM.

`Cc1ccc(-c2cnc(NC3CCNCC3)nc2-c2ccc(C#N)cc2)cc1` [Example 30, 4-[5-(4-methylphenyl)-2-[(piperidin-4-yl)amino]pyrimidin-4-yl]benzonitrile] displayed a 50% inhibitory concentration (IC50) below 100 nM.

For the molecule `Cc1ccc(-c2cnc(NCC3CCNCC3)nc2-c2ccc(C#N)cc2)cc1` [Example 32, 4-[5-(4-methylphenyl)-2-[(piperidin-4-ylmethyl)amino]pyrimidin-4-yl]benzonitrile], the IC50 is below 100 nM.

For the molecule `Cc1ccc(-c2cnc(N3CCC4(CCNC4)C3)nc2-c2ccc(C#N)cc2)cc1` (stereo not shown) [Example 35, 4-(2-{2,7-diazaspiro[4.4]nonan-2-yl}-5-(4-methylphenyl)pyrimidin-4-yl)benzonitrile], the IC50 was below 100 nM.

On to `Cc1ccc(-c2cnc(N3CCC4(CCNCC4)C3)nc2-c2ccc(C#N)cc2)cc1` [Example 36, 4-(2-{2,8-diazaspiro[4.5]decan-2-yl}-5-(4-methylphenyl)pyrimidin-4-yl)benzonitrile], for which the IC50 was below 100 nM.

Consider `Cc1ccc(-c2cnc(N3CCC4(CCNC4)CC3)nc2-c2ccc(C#N)cc2)cc1` [Example 39, 4-(2-{2,8-diazaspiro[4.5]decan-8-yl}-5-(4-methylphenyl)pyrimidin-4-yl)benzonitrile], for which the IC50 is below 100 nM.

For the molecule `Cc1ccc(-c2cnc(N3CCC4(CCCN4)CC3)nc2-c2ccc(C#N)cc2)cc1` [Example 40, 4-(2-{1,8-diazaspiro[4.5]decan-8-yl}-5-(4-methylphenyl)pyrimidin-4-yl)benzonitrile], the IC50 is below 100 nM.

On to `Cc1ccc(-c2cc(NCC3CCNC3)nn2-c2ccc(C#N)cc2)cc1` (stereo not shown) [Example 43, 4-[5-(4-methylphenyl)-3-(pyrrolidin-3-ylmethylamino)pyrazol-1-yl]benzonitrile], for which the half-maximal inhibitory concentration (IC50) is below 100 nM.

`Cc1ccc(-c2cc(NC[C@H]3CCNC3)nn2-c2ccc(C#N)cc2)cc1` [Example 44, 4-[5-(4-methylphenyl)-3-[[(3S)-pyrrolidin-3-yl]methylamino]pyrazol-1-yl]benzonitrile] returned a half-maximal inhibitory concentration (IC50) below 100 nM.

Regarding `Cc1ccc(-c2cc(NC[C@@H]3CCNC3)nn2-c2ccc(C#N)cc2)cc1` [Example 45, 4-[5-(4-methylphenyl)-3-[[(3R)-pyrrolidin-3-yl]methylamino]pyrazol-1-yl]benzonitrile], the IC50 was below 100 nM.

Take `Cc1ccc(-c2cc(NCC3CCNCC3)nn2-c2ccc(C#N)cc2)cc1` [Example 46, 4-[5-(4-methylphenyl)-3-(piperidin-4-ylmethylamino)pyrazol-1-yl]benzonitrile]: the half-inhibitory concentration (IC50) was below 100 nM.

Molecule `Cc1ccc(-c2cc(NC[C@H]3[C@@H]4CNC[C@@H]43)nn2-c2ccc(C#N)cc2)cc1` [Example 47, 4-[3-[[(1S,5R)-3-azabicyclo[3.1.0]hexan-6-yl]methylamino]-5-(4-methylphenyl)pyrazol-1-yl]benzonitrile] yielded an IC50 below 100 nM.
